The text below walks through data of patent US20050090529A1, “3,5 Disubstituted indazole compounds with nitrogen-bearing 5-membered heterocycles, pharmaceutical compositions, and methods for mediating or inhibiting cell proliferation” (PFIZER INC, priority 2003, published 2005).

The subject of this experiment is Cyclin-dependent kinase. Nature of the experiment: Cyclin-dependent kinase inhibition, % inhibition at 10 nM (library Examples 99-270). The format is biochemical. To be noted: 10 nM compound. A digest of the protocol:
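Enzyme starts the reaction at 30° C, which runs 20 min with 25 μM [³²P/³³P]ATP and protein substrate (pH 7.4, 10 mM MgCl2, 2% DMSO). After EDTA quench, membrane-bound labelled substrate is read by phosphorimaging following acid washes.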
In the case of `CCNCc1cncc(-c2ccc3[nH]nc(-c4ncc(C(=O)N5CCOCC5)[nH]4)c3c2)c1C` [Example 152, ethyl[(4-methyl-5-{3-[5-(morpholin-4-ylcarbonyl)-1H-imidazol-2-yl]-1H-indazol-5-yl}pyridin-3-yl)methyl]amine], the “% Inhib @ 10 nM” value is 67%. For `CCNCc1cncc(-c2ccc3[nH]nc(-c4ncc(C(=O)NCCc5c[nH]c6cc(OC)ccc56)[nH]4)c3c2)c1C` [Example 120] the value was 45%; for `CCNCc1cncc(-c2ccc3[nH]nc(-c4ncc(C(=O)NCCSc5ccc(F)cc5)[nH]4)c3c2)c1C` [Example 223], 71%. For `CCNCc1cncc(-c2ccc3[nH]nc(-c4ncc(C(=O)N5CCC(Oc6ccccc6)CC5)[nH]4)c3c2)c1C` [Example 196, ethyl{[4-methyl-5-(3-{5-[(4-phenoxypiperidin-1-yl)carbonyl]-1H-imidazol-2-yl]-1H-indazol-5-yl)pyridin-3-yl]methyl}amine], the “% Inhib @ 10 nM” value is 71%.

Turning to `CCNCc1cncc(-c2ccc3[nH]nc(-c4ncc(C(=O)N5CCN(c6ccc(F)cc6F)CC5)[nH]4)c3c2)c1C` [Example 230], the “% Inhib @ 10 nM” value worked out at 74%. As to `CCNCc1cncc(-c2ccc3[nH]nc(-c4ncc(C(=O)N5CCCCC5Cc5ccccc5)[nH]4)c3c2)c1C` (centres unmarked) [Example 233, {[5-(3-{5-[(2-benzylpipendin-1-yl)carbonyl]-1H-imidazal-2-yl)-1H-indazol-5-yl)-4-methylpyridin-3-yl]methyl}ethylamine], the “% Inhib @ 10 nM” value worked out at 32%. The result for `CCNCc1cncc(-c2ccc3[nH]nc(-c4ncc(C(=O)NCC5CCCCC5)[nH]4)c3c2)c1C` [Example 166, N-(cyclohexylmethyl)-2-(5-{5-[(ethylamino)methyl]-4-methylpyridin-3-yl}-1H-indazol-3-yl)-1H-imidazole-5-carboxamide] reads 73%; that for `CCNCc1cncc(-c2ccc3[nH]nc(-c4ncc(C(=O)N5Cc6ccccc6C(c6ccccn6)C5)[nH]4)c3c2)c1C` (centres unmarked) [Example 218, ethyl{[4-methyl-5-(3-{5-[(4-pyridin-2-yl-3,4-dihydroisoquinolin-2(1H)-yl)carbonyl]-1H-imidazxol-2-yl}-1H-indazol-5-yl)pyridin-3-yl]methyl}amine], 47%. The result for `CCNCc1cncc(-c2ccc3[nH]nc(-c4ncc(C(=O)N5CCC(c6ccnc(NCC)n6)CC5)[nH]4)c3c2)c1C` [Example 252, N-ethyl-4-(1-{[2-(5-{5-[(ethylamino)methyl]-4-methylpyridin-3-yl}-1H-indazol-3-yl)-1H-imidazol-5-yl]carbonyl}piperidin-4-yl)pyrimidin-2-amine] reads 41%; that for `CCNCc1cncc(-c2ccc3[nH]nc(-c4ncc(C(=O)NCCC5=CCCCC5)[nH]4)c3c2)c1C` [Example 131], 57%. `CCNCc1cncc(-c2ccc3[nH]nc(-c4ncc(C(=O)NCC5CCNCC5)[nH]4)c3c2)c1C` [Example 184]: the “% Inhib @ 10 nM” value came out at 21%.

With `CCNCc1cncc(-c2ccc3[nH]nc(-c4ncc(C(=O)NC5CCOCC5)[nH]4)c3c2)c1C` [Example 211, 2-(5-{5-[(ethylamino)methyl]-4-methylpyridin-3-yl}-1H-indazol-3-yl)-N-(tetrahydro-2H-pyran-4-yl)-1H-imidazole-5-carboxamide], the “% Inhib @ 10 nM” value worked out at 57%. With `CCNCc1cncc(-c2ccc3[nH]nc(-c4ncc(C(=O)N5CCCN(Cc6ccc(F)cc6)CC5)[nH]4)c3c2)c1C` [Example 222, ethyl({5-[3-(5-{[4-(4-fluorobenzyl)-1,4-diazxepan-1-yl]carbonyl}1H-imidazol-2-yl)-1H-indazol-5-yl]-4-methylpyridin-3-yl}methyl)amine], the “% Inhib @ 10 nM” value is recorded as 30%. For `CCNCc1cncc(-c2ccc3[nH]nc(-c4ncc(C(=O)N5CCCC5)[nH]4)c3c2)c1C` [Example 138, ethyl[(4-methyl-5-{3-[5-(pyrrolidin-1-ylcarbonyl)-1H-imidazol-2-yl]-1H-indazol-5-yl}pyridin-3-yl)methyl]amine] the value was 79%.
